According to patent US20130102631A1, “NOVEL MICROBIOCIDAL DIOXIME ETHER DERIVATIVES” (SYNGENTA CROP PROTECTION LLC, priority 2010, published 2013):

Columns and labels:
[1] = tested on: Mycosphaerella arachidis (Cercospora arachidicola); assay: Mycosphaerella arachidis (Cercospora arachidicola) / liquid culture (early leaf spot); assay type: cell-based; conditions: at ≦200 ppm, liquid culture PDB, inhibition of growth photometrically 4-5 days after application, read-out: control of Mycosphaerella arachidis
Method: Mycosphaerella arachidis (Cercospora arachidicola)/Liquid Culture (Early Leaf Spot): Conidia of the fungus from cryogenic storage were directly mixed into nutrient broth (PDB potato dextrose broth). After placing a DMSO solution of test compound into a 96-well microtiter plate, the nutrient broth containing the fungal spores was added. The test plates are incubated at 24° C. and the inhibition of growth was determined photometrically 4-5 days after application. […]-2.509; 5.561; 2.561; P.57; 2.513; 2.559; 2.558; 2.557; 2.556; 2.555; 2.374; 2.553; 2.552; 2.551 (fraction B); 2.551 (fraction A); 2.544; 2.541; 2.539; 2.537; 2.536; 2.533; 2.532; 2.531; 2.530; 2.528; 2.526; 2.525 (fraction B); 2.525 (fraction A); 2.524; 2.520; 2.519; 2.510; 2.518; 2.517; 2.516; 2.514; […].002; 2.512; 2.511; 2.514

Gaeumannomyces graminis = Gaeumannomyces graminis / liquid culture (take-all of cereals); assay type: cell-based; conditions: at ≦200 ppm, liquid culture PDB, inhibition of growth photometrically 4-5 days after application, read-out: control of Gaeumannomyces graminis
Method: Gaeumannomyces graminis/Liquid Culture (Take-All of Cereals): Mycelial fragments of the fungus from cryogenic storage were directly mixed into nutrient broth (PDB potato dextrose broth). After placing a DMSO solution of test compound into a 96-well microtiter plate, the nutrient broth containing the fungal spores is added. The test plates were incubated at 24° C. and the inhibition of growth was determined photometrically 4-5 days after application. […]-2.509; 5.561; 2.561; P.57; 2.513; 2.559; 2.558; 2.557; 2.556; 2.555; 2.374; 2.553; 2.552; 2.551 (fraction B); 2.551 (fraction A); 2.539; 2.533; 2.528; 2.526; 2.525 (fraction B); 2.525 (fraction A); 2.524; 2.523; 2.521; 2.520; 2.519; 2.510; 2.518; 2.516; 2.514; E/E-5.167; E/E-3.002; 2.512; E/E-2.508

[2] = tested on: Mycosphaerella graminicola (Septoria tritici); assay: Mycosphaerella graminicola (Septoria tritici) / liquid culture (Septoria blotch); assay type: cell-based; conditions: Zymoseptoria tritici; at ≦200 ppm, liquid culture PDB, inhibition of growth photometrically 4-5 days after application; read-out: control of Mycosphaerella graminicola
[3] = tested on: Phaeosphaeria nodorum (Septoria nodorum); assay: Phaeosphaeria nodorum (Septoria nodorum) / wheat / leaf disc preventative (glume blotch); assay type: in vivo; conditions: Parastagonospora nodorum, foliar, wheat leaf segments cv Kanzler, inoculated 2 days after application, assessed 5-7 days after application
Method: Phaeosphaeria nodorum (Septoria nodorum)/Wheat/Leaf Disc Preventative (Glume Blotch): Wheat leaf segments cv Kanzler were placed on agar in a 24-well plate and sprayed with formulated test compound diluted in water at an application rate of 200 ppm. The leaf disks are inoculated with a spore suspension of the fungus 2 days after application. The inoculated test leaf disks are incubated at 20° C. and 75% relative humidity under a light regime of 12/12 h (light/dark) in a climate cabinet and the activity of a compound is assessed as percent disease control compared to untreated when an appropriate level of disease damage appears in untreated check leaf disks (5-7 days after application). […]-2.508; 5.561; 2.561; E/E-2.208; P.57; 2.513; 2.559; 2.558; 2.557; 2.556; 2.555; 2.374; 2.544; 2.541; 2.539; 2.537; 2.536; 2.535; 2.533; 2.530; 2.526; 2.519; 2.510; 2.516; 2.514; E/E-5.167; E/E-3.002; 2.512

Pyrenophora teres = Pyrenophora teres / barley / leaf disc preventative (net blotch); assay type: in vivo; conditions: foliar, barley leaf segments cv Hasso, inoculated two days after application, assessed 5-7 days after application
Method: Pyrenophora teres/Barley/Leaf Disc Preventative (Net Blotch): Barley leaf segments cv Hasso are placed on agar in a 24-well plate and sprayed with formulated test compound diluted in water at an application rate of 200 ppm. The leaf segments are inoculated with a spore suspension of the fungus two days after application of the test solution. The inoculated leaf segments are incubated at 20° C. and 65% relative humidity under a light regime of 12/12 h (light/dark) in a climate cabinet and the activity of a compound is assessed as disease control compared to untreated when an appropriate level of disease damage appears in untreated check leaf segments (5-7 days after application). […]-2.507; 5.561; 2.561; E/E-2.208; P.57; 2.513; 2.559; 2.558; 2.556; 2.555; 2.374; 2.552; 2.544; 2.537; 2.533; 2.530; 2.528; 2.519; 2.510; 2.516; 2.514; E/E-5.167; E/E-3.002; 2.512

[4] = tested on: Blumeria graminis f. sp. tritici (Erysiphe graminis f. sp. tritici); assay: Blumeria graminis f. sp. tritici / wheat / leaf disc preventative (powdery mildew on wheat); assay type: in vivo; conditions: foliar, wheat leaf segments cv. Kanzler, inoculated 1 day after application, assessed 6-8 days after application
Method: Blumeria graminis f. sp. tritici (Erysiphe graminis f. sp. tritici)/Wheat/Leaf Disc Preventative (Powdery Mildew on Wheat):
Wheat leaf segments cv. Kanzler were placed on agar in a 24-well plate and sprayed with the formulated test compound diluted in water at an application rate of 200 ppm. The leaf disks were inoculated by shaking powdery mildew infected plants above the test plates 1 day after application. The inoculated leaf disks were incubated at 20° C. and 60% relative humidity under a light regime of 24 h darkness followed by 12 h/12 h (dark/light) in a climate chamber and the activity of a compound was assessed as percent disease control compared to untreated when an appropriate level of disease damage appears on untreated check leaf segments (6-8 days after application). The following compounds gave at least 80% control of Blumeria graminis: E/E-2.168, E/E-2.474, E/E-2.002; 5.561; 2.561; E/E-2.208; 2.513; 2.559; 2.557; 2.556; 2.555; 2.374; 2.552; 2.537; 2.533; 2.530; 2.528; 2.526; 2.519; 2.510; 2.516; 2.514; E/E-5.167; E/E-3.002; 2.512; 2.511

Glomerella lagenarium = Glomerella lagenarium (Colletotrichum lagenarium) / liquid culture (anthracnose); assay type: cell-based; conditions: Colletotrichum orbiculare; at ≦200 ppm, liquid culture PDB, inhibition of growth photometrically 3-4 days after application; read-out: control of Glomerella lagenarium
Method: Glomerella lagenarium (Colletotfichum lagenarium)/Liquid Culture (Anthracnose): Conidia of the fungus from cryogenic storage were directly mixed into nutrient broth (PDB potato dextrose broth). After placing a DMSO solution of test compound into a 96-well microtiter, the nutrient broth containing the fungal spores was added. The test plates were incubated at 24° C. and the inhibition of growth is measured photometrically 3-4 days after application. […]-2.509; 5.561; 2.561; E/E-2.208; P.57; 2.513; 2.559; 2.556; 2.555; 2.374; 2.552; 2.548; 2.544; 2.541; 2.540; 2.539; 2.537; 2.536; 2.533; 2.531; 2.530; 2.528; 2.526; 2.519; 2.510; 2.516; 2.514; E/E-5.167; E/E-3.002; 2.512; 2.514; Z/E-2.474

[5] = tested on: Puccinia recondita f. sp. tritici; assay: Puccinia recondita f. sp. tritici / wheat / leaf disc curative (brown rust); assay type: in vivo; conditions: foliar, wheat leaf segments cv Kanzler, 200 ppm applied 1 day after inoculation, assessed 6-8 days after application
Method: Puccinia recondita f. sp. tritici/Wheat/Leaf Disc Curative (Brown Rust): Wheat leaf segments cv Kanzler were placed on agar in 24-well plates. The leaf segments were inoculated with a spore suspension of the fungus. The plates were stored in darkness at 19° C. and 75% relative humidity. The formulated test compound diluted in water was applied at an application rate of 200 ppm 1 day after inoculation. […]-2.508; 5.561; 2.561; E/E-2.208; 2.513; 2.559; 2.556; 2.555; 2.374; 2.552; 2.537; 2.519; 2.516; 2.514; […].002; 2.512; E/E-2.507

[6] = tested on: Puccinia recondita f. sp. tritici; assay: Puccinia recondita f. sp. tritici / wheat / leaf disc preventative (brown rust); assay type: in vivo; conditions: foliar, wheat leaf segments cv Kanzler, inoculated 1 day after application, assessed 7-9 days after application
Method: Puccinia recondita f. sp. Tritici/Wheat/Leaf Disc Preventative (Brown Rust): Wheat leaf segments cultivated variety (cv) Kanzler were placed on agar in 24-well plates and sprayed with formulated test compound diluted in water at an application rate of 200 ppm. The leaf disks were inoculated with a spore suspension of the fungus 1 day after application. The inoculated leaf segments were incubated at 19° C. and 75% relative humidity under a light regime of 12/12 h (light/dark) in a climate cabinet and the activity of a compound was assessed as percent disease control compared to untreated when an appropriate level of disease damage appears in untreated check leaf segments (7-9 days after application). […]-2.508; 5.561; 2.561; 2.513; 2.559; 2.556; 2.555; 2.374; 2.544; 2.537; 2.530; 2.525 (fraction B); 2.519; 2.516; 2.514; E/E-5.167; E/E-3.002; 2.512; E/E-2.507

[7] = tested on: Monographella nivalis (Microdochium nivale); assay: Monographella nivalis (Microdochium nivale) / liquid culture (foot rot cereals); assay type: cell-based; conditions: at ≦200 ppm, liquid culture PDB, inhibition of growth photometrically 4-5 days after application, read-out: control of Monographella nivalis
Method: Monographella nivalis (Microdochium nivale)/Liquid Culture (Foot Rot Cereals): Conidia of the fungus from cryogenic storage were directly mixed into nutrient broth (PDB potato dextrose broth). After placing a DMSO solution of test compound into a 96-well microtiter plate, the nutrient broth containing the fungal spores was added. The test plates were incubated at 24° C. and the inhibition of growth was determined photometrically 4-5 days after application. […].57; 2.513; 2.559; 2.558; 2.556; 2.555; 2.374; 2.553; 2.551 (fraction B); 2.551 (fraction A); 2.548; 2.544; 2.542; 2.541; 2.539; 2.536; 2.535; 2.533; 2.530; 2.528; 2.526; 2.525 (fraction B); 2.525 (fraction A); 2.524; 2.519; 2.518; 2.516; 2.514; E/E-5.167; 2.512; 2.514

Cc1ccc2c(n1)/C(=N/OCC(C)(C)CO/N=C(\c1ccccc1)c1ccccn1)CCC2 [Compound 2.510]
≥ 80%: inhibition of growth at up to 200 µg/mL [1] | inhibition of growth at up to 200 µg/mL (Gaeumannomyces graminis) | inhibition of growth at up to 200 µg/mL [2] | pest or weed control at 200 ppm [3] | pest or weed control at 200 ppm (Pyrenophora teres) | pest or weed control at 200 ppm [4] | inhibition of growth at up to 200 µg/mL (Glomerella lagenarium)

C/C(=N\OCC(C)(O)CO/N=C1\CCCc2ccc(C)nc21)c1cccc(C)n1 (stereo not drawn) [E/E-14.002]
≥ 80%: inhibition of growth at up to 200 µg/mL [1] | pest or weed control at 200 ppm [5]

Cc1ccc2c(n1)/C(=N/OCC(C)(C)CO/N=C(\c1ccncc1)c1ccccn1)CCC2 [Compound 2.537]
≥ 80%: inhibition of growth at up to 200 µg/mL [1] | inhibition of growth at up to 200 µg/mL [2] | pest or weed control at 200 ppm [3] | pest or weed control at 200 ppm [5] | pest or weed control at 200 ppm (Pyrenophora teres) | pest or weed control at 200 ppm [6] | pest or weed control at 200 ppm [4] | inhibition of growth at up to 200 µg/mL (Glomerella lagenarium)

C/C(=N\OCC(C)(C)CO/N=C1\CCCc2c(C)cc(CF)nc21)c1cc(C)cc(C)n1 [E/E-2.208]
≥ 80%: pest or weed control at 200 ppm [3] | pest or weed control at 200 ppm [5] | pest or weed control at 200 ppm (Pyrenophora teres) | pest or weed control at 200 ppm [4] | inhibition of growth at up to 200 µg/mL (Glomerella lagenarium)

CC/C(=N/OCC(C)(C)CO/N=C1\CCCc2ccc(C)nc21)c1ncc(Cl)cc1F (single isomer, unassigned) [2.525 (fraction B)]
≥ 80%: inhibition of growth at up to 200 µg/mL [1] | inhibition of growth at up to 200 µg/mL (Gaeumannomyces graminis) | inhibition of growth at up to 200 µg/mL [2] | inhibition of growth at up to 200 µg/mL [7] | pest or weed control at 200 ppm [6]

C/C(=N\OCC(C)(C)CO/N=C1\CCCc2ccc(C)nc21)c1cccc(-c2ccccc2Cl)n1 [Compound 2.544]
≥ 80%: inhibition of growth at up to 200 µg/mL [1] | inhibition of growth at up to 200 µg/mL [2] | pest or weed control at 200 ppm [3] | pest or weed control at 200 ppm (Pyrenophora teres) | inhibition of growth at up to 200 µg/mL [7] | pest or weed control at 200 ppm [6] | inhibition of growth at up to 200 µg/mL (Glomerella lagenarium)

Cc1ccc2c(n1)/C(=N/OCC(C)(C)CO/N=C/c1cccc(CO)n1)CCC2 [Compound 2.528]
≥ 80%: inhibition of growth at up to 200 µg/mL [1] | inhibition of growth at up to 200 µg/mL (Gaeumannomyces graminis) | inhibition of growth at up to 200 µg/mL [2] | pest or weed control at 200 ppm (Pyrenophora teres) | inhibition of growth at up to 200 µg/mL [7] | pest or weed control at 200 ppm [4] | inhibition of growth at up to 200 µg/mL (Glomerella lagenarium)

Cc1ccc2c(n1)/C(=N/OCC(C)(C)CO/N=C/c1ncc(Cl)cc1F)CCC2 [Compound 2.552]
≥ 80%: inhibition of growth at up to 200 µg/mL [1] | inhibition of growth at up to 200 µg/mL (Gaeumannomyces graminis) | inhibition of growth at up to 200 µg/mL [2] | pest or weed control at 200 ppm [5] | pest or weed control at 200 ppm (Pyrenophora teres) | pest or weed control at 200 ppm [4] | inhibition of growth at up to 200 µg/mL (Glomerella lagenarium)
